The values that follow come from US20230265151A1, “GIP/GLP1 CO-AGONIST COMPOUNDS” (priority 2020, published 2023).

Usually Ki stands for the dissociation constant of the complex between target and ligand, obtained from inhibition or displacement. One may read the Emax as the maximal effect, on the per cent scale that the assay sets. As a reminder, the EC50 is the concentration needed to bring the measured effect to its halfway point.

Assay [1] concerns the target T1, human Gcg receptor (hGcgR) (Homo sapiens, UniProt P47871).
T1 construct: expressed in transfected cells; crude membranes
Kind of assay: [125I]-Glucagon binding, SPA with membranes of HEK293 cells expressing hGcgR.

For assay [2], the target named is T2, hGIPR (Homo sapiens, UniProt P48546).
T2 construct: expressed in transfected cells
T2 sequence (P48546 22-466): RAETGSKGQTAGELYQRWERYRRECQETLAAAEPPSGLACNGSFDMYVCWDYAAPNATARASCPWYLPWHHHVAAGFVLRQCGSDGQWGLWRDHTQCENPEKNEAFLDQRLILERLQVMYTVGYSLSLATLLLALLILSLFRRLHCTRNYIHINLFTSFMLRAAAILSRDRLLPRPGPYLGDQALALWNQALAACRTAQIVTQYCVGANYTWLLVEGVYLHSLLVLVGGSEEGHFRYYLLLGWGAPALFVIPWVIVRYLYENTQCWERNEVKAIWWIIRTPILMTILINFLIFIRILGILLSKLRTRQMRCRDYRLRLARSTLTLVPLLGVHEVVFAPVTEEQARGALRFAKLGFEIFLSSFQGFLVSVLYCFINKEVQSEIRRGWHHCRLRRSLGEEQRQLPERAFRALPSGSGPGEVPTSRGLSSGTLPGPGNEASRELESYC
In words: Functional cAMP formation (HTRF) in HEK-293 clonal cells expressing hGIPR, 0.1% bovine casein, without or with 1.0% human serum albumin. The class given is cell-based. To be noted: for EC50: cAMP. A digest of the protocol:
(§1)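 Cells were stimulated with peptide for 30 min at 37° C, then lysed in buffer carrying cAMP-d2 and anti-cAMP Eu3+-cryptate for a competitive HTRF read after at least 60 min at room temperature. The 665/620 nm ratio was converted to nM cAMP against a standard curve.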
Background: Cyclic AMP is a second messenger, typically raised through Gs and lowered through Gi signalling.

In assay [3] the target is T3, hGCGR (Homo sapiens, UniProt P47871).
T3 construct: expressed in transfected cells
T3 sequence (P47871 26-477): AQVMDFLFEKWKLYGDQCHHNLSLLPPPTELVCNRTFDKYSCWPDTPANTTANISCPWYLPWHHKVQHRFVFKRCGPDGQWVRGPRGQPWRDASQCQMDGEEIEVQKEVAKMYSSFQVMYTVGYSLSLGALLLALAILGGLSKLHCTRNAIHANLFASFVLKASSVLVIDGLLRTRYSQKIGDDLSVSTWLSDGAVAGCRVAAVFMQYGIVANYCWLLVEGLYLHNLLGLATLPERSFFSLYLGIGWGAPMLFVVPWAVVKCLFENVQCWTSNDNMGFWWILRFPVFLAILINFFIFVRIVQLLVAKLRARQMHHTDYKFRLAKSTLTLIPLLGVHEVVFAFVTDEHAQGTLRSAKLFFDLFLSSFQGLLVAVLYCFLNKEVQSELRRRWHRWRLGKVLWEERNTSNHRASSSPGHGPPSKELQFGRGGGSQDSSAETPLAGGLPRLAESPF
Kind of assay: Functional cAMP formation (HTRF) in HEK-293 clonal cells expressing hGCGR, 0.1% bovine casein, without or with 1.0% human serum albumin. The class given is cell-based. A digest of the protocol:
as §1

Setting [4] is: human GcgR, geometric mean (SEM, n), read-out: Binding Affinity Ki, nM (SEM, n) hGCGR.
Setting [5] is: HEK293, 0.1% bovine casein and 1.0% human serum albumin, 37° C., percent of maximal response to GIP(1-42)NH2, read-out: hGIPR Emax, % ± SEM.
Setting [6] is: HEK293, percent of maximal response to GIP(1-42)NH2, 37° C., 0.1% bovine casein, arithmetic mean, read-out: hGIPR Emax, % ± SEM.
[7] abbreviates: 0.1% bovine casein and 1.0% human serum albumin, 37° C., geometric mean, read-out: hGCGR EC50, nM (SEM, n).
The mark [8] stands for this setting: cAMP, incubated at 37° C., 0.1% bovine casein (no human serum albumin), geometric mean, read-out: hGCGR EC50, nM (SEM, n).

Like-named read-outs stand apart in the source and are kept apart here.

T1 sequence (P47871 26-477): as above

Consider `CC[C@H](C)[C@H](NC(=O)[C@H](CC(C)C)NC(=O)[C@](C)(Cc1ccc(O)cc1)NC(=O)[C@@H](CCC(=O)O)NC(=O)[C@@H](NC(=O)[C@H](Cc1ccccc1)NC(=O)[C@H](CCC(=O)O)NC(=O)C(C)(C)NC(=O)[C@H](CCC(N)=O)NC(=O)[C@H](C)NC(=O)[C@H](CCCCNC(=O)COCCOCCNC(=O)COCCOCCNC(=O)CC[C@H](NC(=O)CCCCCCCCCCCCC(=O)O)C(=O)O)NC(=O)[C@H](CCCN)NC(=O)[C@H](CC(=O)O)NC(=O)[C@H](CC(C)C)NC(=O)[C@](C)(CC(C)C)NC(=O)[C@@H](NC(=O)[C@](C)(CO)NC(=O)[C@@H](NC(=O)[C@H](CC(=O)O)NC(=O)[C@H](CO)NC(=O)[C@@H](NC(=O)[C@](C)(Cc1ccccc1F)NC(=O)[C@@H](NC(=O)CNC(=O)[C@H](CCC(=O)O)NC(=O)C(C)(C)NC(=O)[C@@H](N)Cc1ccc(O)cc1)[C@@H](C)O)[C@@H](C)O)C(C)C)[C@@H](C)CC)[C@@H](C)CC)C(=O)N[C@@H](CCC(=O)O)C(=O)NCC(=O)NCC(=O)N[C@@H](CCCCNC(=O)COCCOCCNC(=O)COCCOCCNC(=O)CC[C@H](NC(=O)CCCCCCCCCCCCC(=O)O)C(=O)O)C(=O)N[C@@H](CO)C(=O)N[C@@H](CO)C(=O)NCC(=O)N[C@@H](C)C(=O)N1CCC[C@H]1C(=O)N1CCC[C@H]1C(=O)N1CCC[C@H]1C(=O)N[C@@H](CO)C(N)=O` [Example 212], for which the inhibition constant Ki in assay [1] (setting [4]) was greater than 955 nM. In addition, the maximal response (Emax) in assay [2] (setting [5]) is 81%; in assay [2] (setting [6]), 100%. Moreover, the EC50 is 0.0385 nM in assay [2] (incubated at 37° C., 0.1% bovine casein (no human serum albumin), geometric mean, read-out: hGIPR EC50, nM (SEM, n)); greater than 9950 nM in assay [3] (setting [7]); greater than 9950 nM in assay [3] (setting [8]).
Turning to `CC[C@H](C)[C@H](NC(=O)[C@H](CC(C)C)NC(=O)[C@](C)(Cc1ccc(O)cc1)NC(=O)[C@@H](CCC(=O)O)NC(=O)[C@@H](NC(=O)[C@H](Cc1ccccc1)NC(=O)[C@H](CCC(=O)O)NC(=O)C(C)(C)NC(=O)[C@H](CCC(N)=O)NC(=O)[C@H](C)NC(=O)[C@H](CCCCNC(=O)COCCOCCNC(=O)COCCOCCNC(=O)CC[C@H](NC(=O)CCCCCCCCCCCCC(=O)O)C(=O)O)NC(=O)[C@H](CCCN)NC(=O)[C@H](CC(=O)O)NC(=O)[C@H](CC(C)C)NC(=O)[C@](C)(CC(C)C)NC(=O)[C@@H](NC(=O)C(C)(C)NC(=O)[C@@H](NC(=O)[C@H](CC(=O)O)NC(=O)[C@H](CO)NC(=O)[C@@H](NC(=O)[C@](C)(Cc1ccccc1F)NC(=O)[C@@H](NC(=O)CNC(=O)[C@H](CCC(=O)O)NC(=O)C(C)(C)NC(=O)[C@@H](N)Cc1ccc(O)cc1)[C@@H](C)O)[C@@H](C)O)C(C)C)[C@@H](C)CC)[C@@H](C)CC)C(=O)N[C@@H](CCC(=O)O)C(=O)NCC(=O)NCC(=O)N[C@@H](CCCCNC(=O)COCCOCCNC(=O)COCCOCCNC(=O)CC[C@H](NC(=O)CCCCCCCCCCCCC(=O)O)C(=O)O)C(=O)N[C@@H](CO)C(=O)N[C@@H](CO)C(=O)NCC(=O)N[C@@H](C)C(=O)N1CCC[C@H]1C(=O)N1CCC[C@H]1C(=O)N1CCC[C@H]1C(=O)N[C@@H](CO)C(N)=O` [Example 91], the Ki in assay [1] (setting [4]) is greater than 955 nM. Besides, the figures for the Emax in assay [2] (setting [5]) and in assay [2] (setting [6]) were 91.9% and 92.8 ± 4.69%, respectively. In addition, the concentration giving a half-maximal response (EC50) in assay [3] (setting [7]) and in assay [3] (setting [8]) was greater than 9950 nM throughout.
`CC[C@H](C)[C@H](NC(=O)[C@H](CC(C)C)NC(=O)[C@](C)(Cc1ccc(O)cc1)NC(=O)[C@H](CCCCNC(=O)CC[C@H](NC(=O)COCCOCCNC(=O)COCCOCCNC(=O)CC[C@H](NC(=O)CCCCCCCCCOc1ccc(C(=O)O)cc1)C(=O)O)C(=O)O)NC(=O)[C@@H](NC(=O)[C@H](Cc1ccccc1)NC(=O)[C@H](CCCN)NC(=O)C(C)(C)NC(=O)[C@H](CCC(N)=O)NC(=O)[C@H](C)NC(=O)[C@H](CCC(N)=O)NC(=O)[C@H](CCCN)NC(=O)[C@H](CC(=O)O)NC(=O)[C@H](CC(C)C)NC(=O)[C@](C)(CC(C)C)NC(=O)[C@@H](NC(=O)C(C)(C)NC(=O)[C@H](Cc1ccncc1)NC(=O)[C@H](CC(=O)O)NC(=O)[C@H](CO)NC(=O)[C@@H](NC(=O)[C@](C)(Cc1ccccc1F)NC(=O)[C@@H](NC(=O)CNC(=O)[C@H](CCC(=O)O)NC(=O)C(C)(C)NC(=O)[C@@H](N)Cc1ccc(O)cc1)[C@@H](C)O)[C@@H](C)O)[C@@H](C)CC)[C@@H](C)CC)C(=O)N[C@@H](CCCCNC(=O)CC[C@H](NC(=O)COCCOCCNC(=O)COCCOCCNC(=O)CC[C@H](NC(=O)CCCCCCCCCOc1ccc(C(=O)O)cc1)C(=O)O)C(=O)O)C(=O)NCC(=O)NCC(=O)N1CCC[C@H]1C(=O)N[C@@H](CO)C(=O)N[C@@H](CO)C(=O)NCC(=O)N[C@@H](C)C(=O)N1CCC[C@H]1C(=O)N1CCC[C@H]1C(=O)N1CCC[C@H]1C(=O)N[C@@H](CO)C(N)=O` [Example 483] gave an inhibitory constant (Ki) in assay [1] of 151 nM. The Emax in assay [2] (HEK293, read-out: hGIPR Emax, % ± SEM, cAMP, 37° C., 0.1% bovine casein and 1.0% human serum albumin, percent of maximal response to GIP(1-42)NH2) was 92.6%; in assay [2] (HEK293, read-out: hGIPR Emax, % ± SEM, cAMP, 37° C., 0.1% bovine casein, percent of maximal response to GIP(1-42)NH2, arithmetic mean) it was 97.4%. Further, the EC50 in assay [2] (hGIPR EC50, nM (SEM, n), 37° C., 0.1% bovine casein (no human serum albumin), geometric mean) is 0.0138 nM; in assay [2] (hGIPR EC50, nM (SEM, n), 37° C., 0.1% bovine casein and 1.0% human serum albumin, geometric mean (SEM, n)), 0.297 nM; in assay [3] (hGCGR EC50, nM (SEM, n), cAMP, 37° C., 0.1% bovine casein (no human serum albumin), geometric mean), greater than 9950 nM; in assay [3] (hGCGR EC50, nM (SEM, n), cAMP, 37° C., 0.1% bovine casein and 1.0% human serum albumin, geometric mean (SEM, n)), greater than 9950 nM.
